Patent US20090036416A1, “Novel CXCR4 Antagonist and Use Thereof” (Kyoto University, priority 2005, published 2009)

Experiments:
CXCR4 [1] = molecular target: T1, CXCR4 (Homo sapiens, UniProt P61073); assay: CXCR4 antagonistic activity: inhibition of Ca2+ movement induced by SDF-1a in CXCR4 transfected CHO cells (Fura-2); format: cell-based; details: for CXCR4 antagonistic activity (in words): comment in the text on Tables 1 to 3
Procedure: Various aromatic compounds each having a dipicolylamine-zinc complex were prepared, and their CXCR4 antagonistic effects were examined using the following method.
A CXCR4 transfected Chinese hamster ovary(CHO) cells (3×10^4 cell/100 μL/well) were plated in each well of a flat-bottomed micro-titer tray. The samples were incubated in a CO2 incubator at 37° C., and the cells were loaded in Ham F-12 buffer(80 μL/well) for an hour at 37° C., together with 5 μM Fura-2AM (Dojindo, Kumatomo, Japan), 2.5 mM Probenecid (Sigma) and 20 mM HEPES(pH7.4).
Thereafter, the cells were washed twice with Hank's balanced salt solution (100 μL×2), and placed in a spectrofluorimeter (96 well Fluorescence Drug Screening System, Hamamatsu Photonics K.K. Japan). 30 seconds after the measurement started, the cells were incubated in Hank's balanced salt solution with plural test compounds of different concentrations. After 3 minutes, recombinant SDF-1a (PreproTech, 30 nM/[…]/well) was added.
Changes of the CXCR4 transfect CHO cell system loaded with Fura2-A[Ca^2+], were recorded in real time with a modification method of Fura-2. The CXCR4 antagonistic effect was measured based on the inhibition of Ca^2+ movement induced by the stimulation of SDF-1a via CXCR4 (IC50).

CXCR4 [2] = molecular target: T1, CXCR4; assay: CXCR4 binding activity: inhibition of 125I-SDF-1a bonding to CXCR4 transfected CHO cells
Procedure: A CXCR4 transfected CHO cells suspended in Ham's F-12 buffer (0.5% bovine serum albumin, 20 mM HEPES buffer) were placed in a silicon-coated test tube (5×10^5 cells/120 μL/well). Cold SDF-1 a (Final concentration 0.1 μM, 15 μL/well) and a test object having one of various concentrations (15 μL/well) was added to the test tube. Thereafter, ^125I-SDF-1a (PerkinElmer, final concentration=0.1 nM, 15 μL/well) was added. The sample was incubated for an hour at 0° C., mixed with oil (dibutyl phthalate: olive oil=4:1(v/v), 500 μL/well), then centrifuged for 2 minutes at 14,000 rpm. After removing the water layer and the organic layer, the bottom part was separated from the test tube and was placed in a radioimmunoassay counting tube. Thereafter, count per minute (CPM) was measured with a γ-counter.
Inhibition rate (%)=(Et−Ea)/(Et−Ec)×100

HIV-1IIIB = details: read-out: EC50 (anti-HIV-1 activity); HIV-1IIIB infected MT-4 cells, virus number/cells number=0.01, five days, MTT viable cell count
Procedure: The method carries out measurement of anti-HIV-1 activity based on the inhibition effect with respect to cellular degeneration induced in the MT-4 cells by HIV-1.
MT-4 and MOLT-4 cells, human T-cell systems, are incubated in a RPMI1640 culture medium containing 10% heat-inactivated fetal bovine serum, 100 IU/mL of penicillin, and 100 mg/mL of streptomycin.
HIV-1IIIB, an X4-HIV-1-strain, was used as virus. The virus was obtained from a culture solution supernatant of MOLT-4/HIV-1IIIB cells persistently infected with HIV-1, and was kept at −80° C. before use.
Plural test compounds of different concentrations were individually added to HIV-1 infected MT-4 cells (virus number/cells number=0.01), and the samples were plated in the wells of a flat-bottomed micro-titer tray (1.5×10^4 cells/well). The samples were incubated in a CO2 incubator for five days at 37° C. A viable cell count was carried out (EC50) with an MTT method.

T1 sequence (P61073 whole entry): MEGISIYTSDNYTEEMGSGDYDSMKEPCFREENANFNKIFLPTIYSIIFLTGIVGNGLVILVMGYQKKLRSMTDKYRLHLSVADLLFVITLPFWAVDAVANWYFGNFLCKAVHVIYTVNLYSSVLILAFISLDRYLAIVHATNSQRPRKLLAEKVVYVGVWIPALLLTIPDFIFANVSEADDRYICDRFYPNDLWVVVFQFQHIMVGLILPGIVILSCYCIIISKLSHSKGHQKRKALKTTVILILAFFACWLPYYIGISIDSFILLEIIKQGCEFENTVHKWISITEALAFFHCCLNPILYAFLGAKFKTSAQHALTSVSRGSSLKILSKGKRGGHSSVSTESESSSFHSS

Compound	IC50 (CXCR4 [1])	other results
9,10-bis[(2,2′-dipicolylamino) methyl]anthracene/Zn complex [Example Compound 9]	–	CXCR4 antagonistic activity (in words) (CXCR4 [1]): high activity; IC50 (CXCR4 [1]; inhibition of Ca2+ movement induced by SDF-1a (30 nM) via CXCR4, CXCR4 transfected CHO cells): 240 nM
c1ccc(CN(Cc2ccc(CN(Cc3ccccn3)Cc3ccccn3)cc2)Cc2ccccn2)nc1 [Comparative Example Compound A, reference compound]	> 10000 nM	–
c1ccc(CN(Cc2ccc(-c3ccc(CN(Cc4ccccn4)Cc4ccccn4)cc3)cc2)Cc2ccccn2)nc1 [Comparative Example Compound B, reference compound]	> 10000 nM	–
c1ccc(CN(Cc2cccc(-c3cccc(CN(Cc4ccccn4)Cc4ccccn4)c3)c2)Cc2ccccn2)nc1 [Example Compound 3]	350 nM	–
c1ccc(CN(Cc2ccnc(-c3cc(CN(Cc4ccccn4)Cc4ccccn4)ccn3)c2)Cc2ccccn2)nc1 [Example Compound 5]	460 nM	–
c1ccc(CN(Cc2ccccn2)Cc2c3ccccc3cc3ccccc23)nc1 [Example Compound 8]	770 nM	–
C[C@H](NC(=O)[C@H](CCCNC(=N)N)NC(=O)c1ccc(CNCc2ccccn2)cc1)c1cccc2ccccc12 [Reference Example Compound III, reference compound]	240 nM	IC50 (CXCR4 [2]): 34 nM
bis(2,2′-dipicolylamino)-p-xylene/zinc complex [Example Compound 1]	–	EC50 (HIV-1IIIB): 7100 nM; CXCR4 antagonistic activity (in words) (CXCR4 [1]): strong CXCR4 antagonistic activity; CXCR4 bonding activity (in words) (CXCR4 [2]; comment in the text on Table 4): comparative to that of Reference Example Compound III (KRH-1636)
